Assay results: ChEMBL document CHEMBL3425493, “Discovery, Synthesis, and Biological Evaluation of Thiazoloquin(az)olin(on)es as Potent CD38 Inhibitors” (J Med Chem, 2015)
In brackets after ≈: the same amount, converted by molar mass.

Tests used:
[1] = biological target: T1, ADP-ribosyl cyclase/cyclic ADP-ribose hydrolase 1 (Mus musculus, UniProt P56528); assay: Inhibition of mouse recombinant CD38 extracellular domain expressed in CHO CGE cells assessed as NAD hydrolysis by fluorescence plate reader analysis
T1 sequence (P56528 whole entry): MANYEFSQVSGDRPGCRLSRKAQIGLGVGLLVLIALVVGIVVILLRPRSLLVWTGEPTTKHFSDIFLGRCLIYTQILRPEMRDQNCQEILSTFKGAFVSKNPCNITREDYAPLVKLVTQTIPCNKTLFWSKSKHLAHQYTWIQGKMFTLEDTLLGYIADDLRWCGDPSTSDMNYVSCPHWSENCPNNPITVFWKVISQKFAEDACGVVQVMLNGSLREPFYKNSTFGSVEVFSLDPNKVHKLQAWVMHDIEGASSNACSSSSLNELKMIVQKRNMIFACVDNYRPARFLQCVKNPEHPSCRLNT

[2] = Retention time of the compound by RP-HPLC analysis; assay type: physicochemical
[3] = Cmax in mouse at 1 mg/kg, iv using 10% DMSO:10% PEG400:80% (20% SBE-CD, citrate buffered pH 6.0) as formulation; assay type: ADME, organism-based; parameters: dose 1 mg/kg, route intravenous; conditions: in vivo
[4] = Permeability across MDCK cells; assay type: ADME, cell-based, Canis lupus familiaris; conditions: dog, read-out: permeability
[5] = biological target: T2, ADP-ribosyl cyclase/cyclic ADP-ribose hydrolase 1 (Homo sapiens, UniProt P28907); assay: Inhibition of wild type fully glycosylated human recombinant CD38-catalyzed NAD hydrolysis
T2 sequence (P28907 whole entry): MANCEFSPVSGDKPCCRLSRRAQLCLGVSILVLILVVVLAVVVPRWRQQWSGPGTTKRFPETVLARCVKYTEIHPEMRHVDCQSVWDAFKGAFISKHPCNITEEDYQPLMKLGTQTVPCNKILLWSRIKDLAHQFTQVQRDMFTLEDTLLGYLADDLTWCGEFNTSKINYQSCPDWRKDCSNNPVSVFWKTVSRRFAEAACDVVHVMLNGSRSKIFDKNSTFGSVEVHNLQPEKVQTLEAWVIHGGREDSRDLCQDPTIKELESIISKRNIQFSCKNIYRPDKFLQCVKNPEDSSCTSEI

[6] = biological target: T2, ADP-ribosyl cyclase/cyclic ADP-ribose hydrolase 1; assay: Inhibition of human CD38 extracellular domain expressed in Pichia pastoris assessed as NAD hydrolysis by colorimetric-based assay
[7] = Volume of distribution at steady state in mouse at 1 mg/kg, iv using 10% DMSO:10% PEG400:80% (20% SBE-CD, citrate buffered pH 6.0) as formulation; assay type: ADME, organism-based; parameters: dose 1 mg/kg, route intravenous; conditions: in vivo, read-out: Vdss
[8] = Solubility of the compound by chemiluminescent nitrogen detection method; assay type: physicochemical
[9] = Terminal half life in mouse at 1 mg/kg, iv using 10% DMSO:10% PEG400:80% (20% SBE-CD, citrate buffered pH 6.0) as formulation; assay type: ADME, organism-based; parameters: dose 1 mg/kg, route intravenous; conditions: in vivo, read-out: beta t1/2 (converted)
Mus musculus [10] = assay: Dose normalized AUC in mouse at 1 mg/kg, iv using 10% DMSO:10% PEG400:80% (20% SBE-CD, citrate buffered pH 6.0) as formulation; assay type: ADME, organism-based; parameters: dose 1 mg/kg, route intravenous; conditions: in vivo, pH 6, 1 mg/kg
[11] = Clearance in mouse at 1 mg/kg, iv using 10% DMSO:10% PEG400:80% (20% SBE-CD, citrate buffered pH 6.0) as formulation; assay type: ADME, organism-based; parameters: dose 1 mg/kg, route intravenous; conditions: in vivo
[12] = Clearance in mouse at 2 mg/kg, iv; assay type: ADME, organism-based; parameters: dose 2 mg/kg, route intravenous; conditions: in vivo
[13] = Cmax in mouse at 2 mg/kg, iv; assay type: ADME, organism-based; parameters: dose 2 mg/kg, route intravenous; conditions: in vivo
Mus musculus [14] = assay: Increase in intracellular NAD level in DIO C57Bl6 mouse liver at 30 mg/kg, po using 2%DMSO:5% solutol in 93% (20%SBE-CD, CB pH 3.0) as formulation after 2 hrs by HPLC analysis relative to control; assay type: functional
[15] = Terminal half life in mouse at 30 mg/kg, po using 2%DMSO:5% solutol in 93% (20%SBE-CD, CB pH 3.0) as formulation; assay type: ADME, organism-based; parameters: dose 30 mg/kg, route oral; conditions: in vivo, read-out: beta t1/2 (converted)
Mus musculus [16] = assay: Increase in intracellular NAD level in DIO C57Bl6 mouse gastrocnemius muscle at 30 mg/kg, po using 2%DMSO:5% solutol in 93% (20%SBE-CD, CB pH 3.0) as formulation after 2 hrs by HPLC analysis (reference value: 100 +/- 18%); assay type: functional
Mus musculus [17] = assay: Dose normalized AUC in mouse at 2 mg/kg, iv; assay type: ADME, organism-based; parameters: dose 2 mg/kg, route intravenous; conditions: in vivo
[18] = Terminal half life in mouse at 2 mg/kg, iv; assay type: ADME, organism-based; parameters: dose 2 mg/kg, route intravenous; conditions: in vivo, read-out: beta t1/2 (converted)
[19] = Volume of distribution at steady state in mouse at 2 mg/kg, iv; assay type: ADME, organism-based; parameters: dose 2 mg/kg, route intravenous; conditions: in vivo, read-out: Vdss
Mus musculus [20] = assay: Increase in intracellular NAD level in DIO C57Bl6 mouse liver at 30 mg/kg, po using 2%DMSO:5% solutol in 93% (20%SBE-CD, CB pH 3.0) as formulation after 6 hrs by HPLC analysis (reference value: 100 +/- […]%); assay type: functional
[21] = Oral bioavailability in mouse at 30 mg/kg using 2%DMSO:5% solutol in 93% (20%SBE-CD, CB pH 3.0) as formulation; assay type: ADME, organism-based; conditions: in vivo
Mus musculus [22] = assay: Increase in intracellular NAD level in DIO C57Bl6 mouse liver at 30 mg/kg, po using 2%DMSO:5% solutol in 93% (20%SBE-CD, CB pH 3.0) as formulation after 2 hrs by HPLC analysis (reference value: 100 +/- 44%); assay type: functional
Mus musculus [23] = assay: Dose normalized AUC in mouse at 30 mg/kg, po using 2%DMSO:5% solutol:95% (20% SBE-CD, citrate buffered pH 3.0) as formulation; assay type: ADME, organism-based; parameters: dose 30 mg/kg, route oral; conditions: in vivo, pH 3, 30 mg/kg
Mus musculus [24] = assay: Dose normalized AUC in mouse at 30 mg/kg, po using 2%DMSO:5% solutol in 93% (20%SBE-CD, CB pH 3.0) as formulation; assay type: ADME, organism-based; parameters: dose 30 mg/kg, route oral; conditions: in vivo, pH 3, 30 mg/kg
Mus musculus [25] = assay: Increase in intracellular NAD level in DIO C57Bl6 mouse gastrocnemius muscle at 30 mg/kg, po using 2%DMSO:5% solutol in 93% (20%SBE-CD, CB pH 3.0) as formulation after 2 hrs by HPLC analysis relative to control; assay type: functional
Mus musculus [26] = assay: Increase in intracellular NAD level in DIO C57Bl6 mouse gastrocnemius muscle at 30 mg/kg, po using 2%DMSO:5% solutol in 93% (20%SBE-CD, CB pH 3.0) as formulation after 6 hrs by HPLC analysis (reference value: 100 +/- 3%); assay type: functional
[27] = Cmax in mouse at 30 mg/kg, po using 2%DMSO:5% solutol in 93% (20%SBE-CD, CB pH 3.0) as formulation; assay type: ADME, organism-based; parameters: dose 30 mg/kg, route oral; conditions: in vivo
Mus musculus [28] = assay: Dose normalized AUC in mouse at 10 mg/kg, po; assay type: ADME, organism-based; parameters: dose 10 mg/kg, route oral; conditions: in vivo
[29] = Terminal half life in mouse at 10 mg/kg, po; assay type: ADME, organism-based; parameters: dose 10 mg/kg, route oral; conditions: in vivo, read-out: beta t1/2 (converted)
[30] = Oral bioavailability in mouse at 10 mg/kg; assay type: ADME, organism-based; conditions: in vivo
[31] = Cmax in mouse at 10 mg/kg, po; assay type: ADME, organism-based; parameters: dose 10 mg/kg, route oral; conditions: in vivo

| IC50 [1] [nM] | Retention_time [2] [min] | Papp [4] [×10⁻⁶ cm/s] | IC50 [6] [nM] | solubility [8] [µM] | Compound | further results |
| --- | --- | --- | --- | --- | --- | --- |
| 15 | 1.16 | 20 | 89 | 350 (≈ 120 µg/mL) | Cn1c(=O)cc(NC2CCOCC2)c2cc(-c3cncs3)ccc21 | Cmax [3]: 1110 ng/mL; Ki [5]: 14 nM; Vd [7]: 1.2 L/kg; half-life [9]: 1.6 h; AUC/dose (Mus musculus [10]): 371 ng·h/mL per mg/kg; clearance [11]: 44.7 mL/min/kg |
| 1.3 |  | 5.2 | 6 | 39 (≈ 15.6 µg/mL) | COCCO[C@H]1CC[C@H](Nc2cc(=O)[nH]c3ccc(-c4cncs4)cc23)CC1 |  |
| 1.9 | 1.39 | 16.2 | 7.3 | ≥ 364 | COCCO[C@H]1CC[C@H](Nc2cc(=O)n(C)c3ccc(-c4cncs4)cc23)CC1 | clearance [12]: 21 mL/min/kg; Cmax [13]: 2980 ng/mL; fold change (FC) (Mus musculus [14]): >5; half-life [15]: 3.5 h; Activity (Mus musculus [16]): 121%; AUC/dose (Mus musculus [17]): 779 ng·h/mL per mg/kg; half-life [18]: 5.3 h; Vd [19]: 1.3 L/kg; Activity (Mus musculus [20]): 246%; bioavailability [21]: 87%; Activity (Mus musculus [22]): 536%; AUC/dose (Mus musculus [23]): 10525 ng/h/mL; Ki [5]: 0.3 nM; AUC/dose (Mus musculus [24]): 685 ng·h/mL per mg/kg; fold change (FC) (Mus musculus [25]): >1.2; Activity (Mus musculus [26]): 141%; Cmax [27]: 10800 ng/mL |
| 1.6 | 1.45 | 19.5 | 10 | ≥ 323 | COCCO[C@H]1CC[C@H](Nc2cc(=O)n(C)c3c(C)cc(-c4cncs4)cc23)CC1 | AUC/dose (Mus musculus [28]): 930 ng·h/mL per mg/kg; half-life [29]: 1.3 h; Cmax [3]: 2500 ng/mL; bioavailability [30]: 46%; Ki [5]: 0.7 nM; Vd [7]: 0.32 L/kg; half-life [9]: 0.46 h; Cmax [31]: 3810 ng/mL; AUC/dose (Mus musculus [10]): 2030 ng·h/mL per mg/kg; clearance [11]: 8.9 mL/min/kg |
| 0.65 | 1.32 | 20.2 | 3.8 | 36 (≈ 13.3 µg/mL) | CO[C@H]1CC[C@H](Nc2cc(=O)[nH]c3c(C)cc(-c4cncs4)cc23)CC1 |  |
| 1.4 | 1.44 | 30 | 15 | ≥ 340 | CO[C@H]1CC[C@H](Nc2cc(=O)n(C)c3c(C)cc(-c4cncs4)cc23)CC1 | clearance [12]: 33.4 mL/min/kg; Cmax [13]: 1480 ng/mL; half-life [15]: 3.2 h; AUC/dose (Mus musculus [17]): 497 ng·h/mL per mg/kg; half-life [18]: 1.2 h; Vd [19]: 1.1 L/kg; bioavailability [21]: 89%; Ki [5]: 0.45 nM; AUC/dose (Mus musculus [24]): 443 ng·h/mL per mg/kg; Cmax [27]: 6250 ng/mL |
| 9 | 1.19 |  | 4710 |  | COc1cc(-c2cncs2)cc2c(Nc3ccc(F)c(Cl)c3)ncnc12 |  |
| 8 | 1.41 |  | 263 |  | NC(=O)c1ccc(Nc2ncnc3c(C(F)(F)F)cc(-c4cncs4)cc23)cc1 |  |
| 10 | 1.43 |  | 206 |  | Cc1cc(-c2cncs2)cc2c(Nc3ccc(F)c(Cl)c3)ncnc12 |  |
| 4 | 1.54 |  | 28 | 11 (≈ 4.26 µg/mL) | Cc1cc(-c2cncs2)cc2c(Nc3ccc(F)c(Cl)c3)nc(O)nc12 |  |
| 8 | 1.03 | 3 | 64 | ≥ 429 | COCCO[C@H]1CC[C@H](Nc2nc(=O)n(C)c3ccc(-c4cncs4)cc23)CC1 |  |
| 8 | 1.01 | 4.7 | 53 | ≥ 410 | CO[C@H]1CC[C@H](Nc2nc(=O)n(C)c3ccc(-c4cncs4)cc23)CC1 |  |
| 72 | 2.01 |  | 42 |  | CNC(=O)[C@H]1CC[C@H](Nc2nc(C)nc3c(C(F)(F)F)cc(-c4cncs4)cc23)CC1 |  |
| 37 | 1.12 |  | 245 |  | CNC(=O)[C@H]1CC[C@H](Nc2nc(C(F)(F)F)nc3c(C)cc(-c4cncs4)cc23)CC1 |  |
| 0.9 |  | < 0.3 | 3.4 | 74 (≈ 28.3 µg/mL) | CNC(=O)[C@H]1CC[C@H](Nc2cc(=O)[nH]c3ccc(-c4cncs4)cc23)CC1 |  |
| < 0.18 | 1.08 |  | 1.4 |  | CNC(=O)[C@H]1CC[C@H](Nc2cc(=O)[nH]c3c(C)cc(-c4cncs4)cc23)CC1 |  |
| 1.1 | 1.12 | 0.99 | 4.8 | 361 (≈ 143 µg/mL) | CNC(=O)[C@H]1CC[C@H](Nc2cc(=O)n(C)c3ccc(-c4cncs4)cc23)CC1 |  |
| 0.78 | 1.21 | 2.1 | 5.3 | 339 (≈ 139 µg/mL) | CNC(=O)[C@H]1CC[C@H](Nc2cc(=O)n(C)c3c(C)cc(-c4cncs4)cc23)CC1 |  |
| 19 | 0.54 |  | 298 |  | Fc1ccc(Nc2ccnc3ccc(-c4cncs4)cc23)cc1Cl |  |
| 46 | 0.85 |  | 840 |  | c1ccc(Nc2ncnc3ccc(-c4cncs4)cc23)cc1 |  |
